Experimental data taken from patent US20110237538A1, “TREATMENT OF LYSOSOMAL STORAGE DISORDERS AND OTHER PROTEOSTATIC DISEASES” (SUMMIT CORPORATION PLC, priority 2008, published 2011).

How the values were obtained:
[1] = test system: beta-glucocerebrosidase (N370S GM01873, L444P GM08752); assay: enzyme enhancement assay, cell based screening for chaperones (Gaucher lymphoblasts); design: species or system human; details: Gaucher patient lymphoblasts, dosed 0.3-100 μM, 72 hr; relative to vehicle, normalised against total protein
[2] = biological target: T1, wild type (wt) beta-glucocerebrosidase (Homo sapiens, UniProt P04062); assay: beta-glucocerebrosidase activity assay in HL60 lysate (4MU-β-D-glc); type: biochemical; details: at a concentration of 100 μM, 0.5 mM 4MU-β-D-glc;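 also: fluorometric read-out of 4MU liberated from the substrate (ex 360 nm, em 450 nm) after 37 °C incubation, reaction stopped with sodium carbonate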
T1 construct: The lysates were used as a source for wild type (wt) beta-glucocerebrosidase; endogenous in cells; host or cells: HL60 (ECACC No. 98070106) lysate
T1 sequence (P04062 40-536): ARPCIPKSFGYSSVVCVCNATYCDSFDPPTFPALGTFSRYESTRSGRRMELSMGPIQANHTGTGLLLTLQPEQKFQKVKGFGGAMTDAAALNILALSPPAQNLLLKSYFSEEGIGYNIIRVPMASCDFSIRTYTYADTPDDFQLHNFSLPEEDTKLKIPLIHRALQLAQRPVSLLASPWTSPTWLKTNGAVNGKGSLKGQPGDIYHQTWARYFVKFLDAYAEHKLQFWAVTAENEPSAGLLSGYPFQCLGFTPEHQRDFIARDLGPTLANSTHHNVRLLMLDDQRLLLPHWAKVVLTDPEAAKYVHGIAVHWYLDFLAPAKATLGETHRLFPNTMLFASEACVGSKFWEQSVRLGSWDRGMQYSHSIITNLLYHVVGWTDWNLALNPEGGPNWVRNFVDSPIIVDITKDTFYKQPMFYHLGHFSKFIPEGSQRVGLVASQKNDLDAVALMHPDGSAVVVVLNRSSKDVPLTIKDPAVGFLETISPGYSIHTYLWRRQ

alpha-galactosidase = assay: enzyme enhancement assay, cell based screening for chaperones (Fabry lymphoblasts GM04391); design: species or system human; details: Fabry patient lymphoblasts (GM04391), dosed 0.3-100 μM, 72 hr; relative to vehicle
[3] = biological target: T2, α-D-mannosidase (Jack bean) (Canavalia ensiformis, UniProt C0HJB3); assay: glycosidase assay with p-nitrophenyl substrates (Example 2); type: biochemical; details: 10 μl of 5 mM iminosugar solution in 70 μl incubation mixture; 20° C.
T2 construct: purchased Sigma Aldrich Chemicals Limited
T2 sequence (C0HJB3 1-981): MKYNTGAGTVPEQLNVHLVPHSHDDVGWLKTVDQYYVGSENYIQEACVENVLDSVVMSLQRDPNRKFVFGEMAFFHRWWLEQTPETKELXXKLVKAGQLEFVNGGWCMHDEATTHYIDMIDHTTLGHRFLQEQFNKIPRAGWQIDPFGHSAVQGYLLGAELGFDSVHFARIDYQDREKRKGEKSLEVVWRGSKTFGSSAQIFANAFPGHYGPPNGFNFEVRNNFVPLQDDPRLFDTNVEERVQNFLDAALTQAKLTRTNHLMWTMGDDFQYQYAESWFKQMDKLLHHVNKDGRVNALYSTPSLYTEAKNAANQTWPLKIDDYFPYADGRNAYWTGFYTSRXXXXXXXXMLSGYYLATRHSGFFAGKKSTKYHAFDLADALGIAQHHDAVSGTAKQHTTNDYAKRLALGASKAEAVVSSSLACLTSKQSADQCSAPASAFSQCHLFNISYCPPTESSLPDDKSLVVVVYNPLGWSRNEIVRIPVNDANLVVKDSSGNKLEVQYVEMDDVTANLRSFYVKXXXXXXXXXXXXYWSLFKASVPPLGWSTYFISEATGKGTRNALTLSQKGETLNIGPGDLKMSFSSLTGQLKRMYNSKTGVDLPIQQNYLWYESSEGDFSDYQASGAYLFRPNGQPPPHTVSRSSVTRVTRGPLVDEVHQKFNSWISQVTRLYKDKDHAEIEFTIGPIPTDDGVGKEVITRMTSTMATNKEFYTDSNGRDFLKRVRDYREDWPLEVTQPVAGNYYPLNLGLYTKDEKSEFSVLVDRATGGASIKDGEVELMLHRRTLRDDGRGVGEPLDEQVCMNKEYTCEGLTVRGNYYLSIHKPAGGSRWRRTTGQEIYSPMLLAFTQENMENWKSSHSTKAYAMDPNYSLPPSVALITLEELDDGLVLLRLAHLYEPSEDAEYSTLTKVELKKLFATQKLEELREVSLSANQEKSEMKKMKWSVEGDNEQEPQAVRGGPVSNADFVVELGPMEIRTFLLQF
Description: (§1) The assays were conducted as described by Watson et al. 1997, Phytochemistry 46: 255-259 using p-nitrophenyl-substrates. Assays were carried out in microtitre plates. Enzymes were assayed in 0.1M citric acid/0.2M di-sodium hydrogen phosphate (Mcllvaine) buffers at the optimum pH for the enzyme. All assays were carried out at 20° C. All enzymes and substrates were purchased from Sigma Aldrich Chemicals Limited. The incubation mixture consisted of 10 μl of enzyme solution, 10 μl of the iminosugars solution (made up in deionised water at 5 mM) and 50 μl of the appropriate 5 mM p-nitrophenyl substrate made up in McIlvaine buffer at the optimum pH for the enzyme. The reactions were stopped with 0.4M glycine (pH 10.4) during the exponential phase of the reaction, which was determined at the beginning of the assay using blanks with water, which were incubated for a range of time periods to measure the reaction rate using 5 mM substrate solution. Absorbances were read at 405 nm. Water was substituted for the inhibitors in the blanks.
(§2) The glycosidases used were α-D-glucosidase (yeast), α-D-glucosidase (Bacillus sterothermophilus), α-D-glucosidase (rice), amyloglucosidase (Aspergillus niger), β-D-glucosidase (almond), α-D-galactosidase (green coffee beans), β-D-galactosidase (bovine liver), α-L-fucosidase (bovine kidney), α-D-mannosidase (Jack bean), β-D-mannosidase (Cellullomonas fimi), Naringinase (Penicillium decumbens), N-acetyl-β-D-glucosaminidase (Bovine kidney), N-acetyl-β-D-glucosaminidase (Aspergillus oryzae) and N-acetyl-β-D-glucosaminidase (Jack bean)

[4] = test system: α-D-glucosidase (Bacillus sterothermophilus); assay: as above; type: biochemical; details: 10 μl of 5 mM iminosugar solution in 70 μl incubation mixture; 20° C.
Description: as §1, §2

[5] = test system: N-acetyl-β-D-glucosaminidase (Bovine kidney); assay: as above; type: biochemical; details: 10 μl of 5 mM iminosugar solution in 70 μl incubation mixture; 20° C.
Description: as §1, §2

[6] = biological target: T3, α-D-galactosidase (green coffee beans) (Coffea arabica, UniProt Q42656); assay: as above; type: biochemical; details: 10 μl of 5 mM iminosugar solution in 70 μl incubation mixture; 20° C.; read-out: Promotion of glycosidase activity: α-D-galactosidase (Green coffee bean)
T3 construct: purchased Sigma Aldrich Chemicals Limited
Description: as §1, §2

[7] = biological target: T4, Jack bean α-D-mannosidase (Canavalia ensiformis, UniProt C0HJB3); assay: α-mannosidase activity assay with p-nitrophenyl-α-D-mannopyranoside (Example 1); type: biochemical
T4 construct: purchased Sigma M7257
T4 sequence (C0HJB3 1-981): T2 sequence (C0HJB3 1-981)
Description: Solutions of 0.2M Mcllvane buffer at pH 4.5 and 5 mM p-nitrophenyl-α-D-mannopyranoside (Sigma, N2127), dissolved in the buffer, were prepared. A solution of Jack bean α-D-mannosidase enzyme (Sigma, M7257, 22 Units/mg, 6.2 mg/ml.) was also prepared at 0.6 Units/ml in the buffer.
The incubation mixture consisted of 10 μl enzyme solution, 10 μl of 1 mg/ml aqueous iminosugar solution and 50 μl of 5 mM substrate made up in buffer at the optimum pH for the enzyme. The reactions were stopped by addition of 70 μl 0.4M glycine (pH 10.4) during the exponential phase of the reaction, which had been determined at the beginning using uninhibited assays in which water replaced inhibitor. Final absorbances were read at 405 nm using a Versamax microplate reader (Molecular Devices). Assays were carried out in triplicate, and the values given are means of the three replicates. Results were expressed as a percentage of uninhibited assays in which water replaced inhibitor.

[8] = Jack Bean α-mannosidase, p-nitrophenyl-α-D-mannopyranoside as the substrate

T3 sequence (Q42656 16-378): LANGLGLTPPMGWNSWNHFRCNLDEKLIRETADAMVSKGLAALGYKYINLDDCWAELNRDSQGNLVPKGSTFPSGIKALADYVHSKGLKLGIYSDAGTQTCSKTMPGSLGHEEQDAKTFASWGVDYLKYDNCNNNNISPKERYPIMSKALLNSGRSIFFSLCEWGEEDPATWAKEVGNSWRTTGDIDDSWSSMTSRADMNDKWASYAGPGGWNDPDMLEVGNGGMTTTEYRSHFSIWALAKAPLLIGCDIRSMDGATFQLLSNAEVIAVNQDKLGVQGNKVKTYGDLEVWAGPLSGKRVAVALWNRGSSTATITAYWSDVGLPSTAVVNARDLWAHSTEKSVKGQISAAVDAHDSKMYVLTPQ

SMILES	Promotion of glycosidase activity: α-D-mannosidase (Jack bean) [3]	Promotion of glycosidase activity: α-D-glucosidase (Bacillus sterothermophilus) [4]	Promotion of glycosidase activity: N-acetyl-β-D-gluc (Bovine kidney) [5]	other results
O[C@@H]1C[C@H]2CC[C@](O)(N2)[C@H]1O [Compound 20, (1R,2S,3R,5R)-8-azabicyclo[3.2.1]octane-1,2,3-triol]	–	–	–	increased enzyme activity (beta-glucocerebrosidase) [1]: > 20%; inhibition at 100 µM [2]: > 50%; increased enzyme activity (alpha-galactosidase) (alpha-galactosidase): > 20%
CCCC[N+]1([O-])C[C@@H](O)[C@H](O)[C@H]1CO (stereo partly drawn) [Compound 95, (2R,3R,4R)-1-butyl-3,4-dihydroxy-2-(hydroxymethyl)pyrrolidine 1-oxide]	86 % increase in absorbance compared to the water controls	53 % increase in absorbance compared to the water controls	46 % increase in absorbance compared to the water controls	activation at 714 µM [6]: 35%
CCCC[N@+]1([O-])C[C@H](O)[C@@H](O)[C@H]1CO [Compound 165, (1S,2R,3S,4S)-1-butyl-3,4-dihydroxy-2-(hydroxymethyl)pyrrolidine 1-oxide]	43 % increase in absorbance compared to the water controls	72 % increase in absorbance compared to the water controls	76 % increase in absorbance compared to the water controls	–
O=C1NC[C@@H](O)[C@@H](O)[C@]1(O)CO [Compound 170, (3R,4R,5R)-3,4,5-trihydroxy-3-(hydroxymethyl)piperidin-2-one]	–	–	–	promotion of the mannosidase activity (in words) [7, 8]: promotion of the mannosidase activity
CCCC[N@@+]1([O-])C[C@@H](O)[C@H](O)[C@@H]1CO [Compound 178, (1R,2S,3R,4R)-1-butyl-3,4-dihydroxy-2-(hydroxymethyl)pyrrolidine 1-oxide]	35 % increase in absorbance compared to the water controls	161 % increase in absorbance compared to the water controls	85 % increase in absorbance compared to the water controls	–
OC[C@H](O)[C@@H]1NC[C@@](O)(CO)[C@H]1O [Compound 200, (2S,3S,4R)-2-((R)-1,2-dihydroxyethyl)-4-(hydroxymethyl)pyrrolidine-3,4-diol]	–	–	–	promotion of the mannosidase activity (in words) [7, 8]: promotion of the mannosidase activity
CC1(C)O[C@H]2[C@H](O)[C@@H](CO[Si](C)(C)C(C)(C)C)NC(=O)[C@H]2O1 [Compound 238, (3aS,6R,7R,7aS)-6-((tert-butyldimethylsilyloxy)methyl)-7-hydroxy-2,2-dimethyltetrahydro-[1,3]dioxolo[4,5-c]pyridin-4(3aH)-one]	–	127 % increase in absorbance compared to the water controls	31 % increase in absorbance compared to the water controls	activation at 714 µM [6]: 30%
O=C1N[C@H]([C@H](O)CO)[C@H](OCc2ccccc2)[C@@H]1OCc1ccccc1 [Compound 242, (3S,4S,5R)-3,4-bis(benzyloxy)-5-((S)-1,2-dihydroxyethyl)pyrrolidin-2-one]	–	65 % increase in absorbance compared to the water controls	59 % increase in absorbance compared to the water controls	activation at 714 µM [6]: 38%
CCOP(=O)(CCCN1C[C@@H](N=[N+]=[N-])C[C@H]1CO)OCC [Compound 291, diethyl 3-((2S,4S)-4-azido-2-(hydroxymethyl)pyrrolidin-1-yl)propylphosphonate]	43 % increase in absorbance compared to the water controls	49 % increase in absorbance compared to the water controls	–	–
CCCCN1C[C@@H](N)C[C@H]1CO [Compound 292, ((2S,4S)-4-amino-1-butylpyrrolidin-2-yl)methanol]	34 % increase in absorbance compared to the water controls	–	–	–
CN1C[C@H](O)C(O)[C@@H](O)C1 [Compound 299, (3S,5S)-1-methylpiperidine-3,4,5-triol]	35 % increase in absorbance compared to the water controls	–	–	–
CCCCCCCCCN1C[C@@H](O)[C@@H](O)[C@@H]1[C@@H](O)CO [Compound 316, (2S,3S,4R)-2-((R)-1,2-dihydroxyethyl)-1-nonylpyrrolidine-3,4-diol]	–	167 % increase in absorbance compared to the water controls	94 % increase in absorbance compared to the water controls	activation at 714 µM [6]: 42%
N[C@H]1[C@H](O)[C@H](O)[C@@H](O)[C@H](O)[C@@H]1CO [Compound A]	–	–	–	stimulation ([7]; Compound A alone): 90%; promotion of the mannosidase activity (in words) [7, 8]: strong stimulation
O[C@H]1[C@H]2[C@H](O)CCCN2C[C@H]1O [swainsonine, reference compound]	–	–	–	inhibition of the mannosidase (in words) [7, 8]: total inhibition of the promoted activity; promotion of the mannosidase activity (in words) [7, 8]: does not cause promotion
